This note sets out measurements from publication PMC10967822, “Antimicrobial Indole-3-Carboxamido-Polyamine Conjugates Target Bacterial Membranes and Are Antibiotic Potentiators” (Biomolecules, 2024).

≈ marks a conversion by molar mass, not a printed value.

In one data set the test system is A. baumannii ATCC 19606. The experiment in a line: MIC, broth microdilution (CO-ADD), A. baumannii. The note with it: Acinetobacter baumannii, ATCC19606, top dose 32 µg/mL. Type of data set: cell-based, Acinetobacter baumannii. (Dilution methods test growth across graded concentrations, often in twofold steps.)
Data set [1] deals with P. aeruginosa ATCC 27853. Put plainly: MIC, broth dilution, P. aeruginosa. The class given is cell-based, Pseudomonas aeruginosa. The note with it: Pseudomonas aeruginosa, ATCC27853; P. aeruginosa ATCC 27853, 18 h; read-out: MIC Pa.
The next data set deals with MRSA ATCC 43300. Put plainly: MIC, broth microdilution (CO-ADD), MRSA. Type of data set: cell-based, methicillin-resistant S. aureus. The note with it: Staphylococcus aureus; MRSA ATCC 43300; top dose 32 µg/mL; read-out: MIC MRSA.
Data set [2] has as its system E. coli ATCC 25922. The experiment in a line: MIC, broth dilution, E. coli. Type of data set: cell-based, Escherichia coli. The note with it: Escherichia coli, ATCC25922; E. coli ATCC 25922, 18 h.
A short description of data set [3]: Cytotoxicity assay (resazurin). Type of data set: cell-based. The note with it: human, HEK293 cells, mean n = 2. Background: Alamar Blue is a resazurin reagent that responds to reducing activity.
For a further data set, the system named is C. albicans ATCC 90028. Put plainly: Antifungal MIC (CO-ADD), C. albicans. Type of data set: cell-based. The note with it: Candida albicans, ATCC90028, top dose 32 µg/mL. As to the method:
(§1) For the antifungal assay, fungi strains were cultured for 3 days on YPD agar at 30 °C. A yeast suspension of 1 × 10^6 to 5 × 10^6 CFU/mL was prepared from five colonies. These stock suspensions were diluted with a yeast nitrogen base (YNB) (Becton Dickinson, 233520, New South Wales, Australia) broth to a final concentration of 2.5 × 10^3 CFU/mL. […] The plates were covered and incubated at 35 °C for 36 h without shaking. C. albicans MICs were determined by measuring the absorbance at OD530. For C. neoformans, resazurin was added at a 0.006% final concentration to each well and incubated for a further 3 h before the MICs were determined by measuring the absorbance at OD570–600. […] Fluconazole was used as a positive fungal inhibitor standard for C. albicans and C. neoformans. […] The quality control (QC) of the assays was determined by the antimicrobial controls and the Z′-factor (using positive and negative controls).

Another data set deals with S. aureus ATCC 25923. Put plainly: MIC, broth dilution, S. aureus. The class given is cell-based, Staphylococcus aureus. The note with it: Staphylococcus aureus, ATCC25923; S. aureus ATCC 25923, 18 h; read-out: MIC Sa.
The subject of data set [4] is K. pneumoniae ATCC 700603. Put plainly: MIC, broth microdilution (CO-ADD), K. pneumoniae. The note with it: top dose 32 µg/mL.
For data set [5], the system named is E. coli ATCC 25922. The experiment in a line: Erythromycin potentiation against E. coli. The class given is cell-based, Escherichia coli. The note with it: erythromycin at 2 µg/mL (2.7 µM); for Erythro/Ec fold-change (intrinsic MIC / combination MIC): E. coli; for Erythro/Ec: concentration required to restore erythromycin activity (combination MIC): mean n = 3. From the text:
(§2) These measurements were independently repeated in triplicate.

Data set [6] deals with C. neoformans ATCC 208821. The experiment in a line: Antifungal MIC (CO-ADD), C. neoformans. The note with it: Cryptococcus neoformans, ATCC208821, top dose 32 µg/mL. The class given is cell-based. Here is the method: as §1
For another data set, the system named is human red blood cells. The experiment in a line: Hemolytic assay. The class given is cell-based. The note with it: 10% hemolytic activity, mean n = 2. As to the method: Human whole blood was washed three times with three volumes of 0.9% NaCl and then resuspended in the same solution to a concentration of 0.5 × 10^8 cells/mL, as determined by the manual cell count in a Neubauer hemocytometer. The washed cells were then added to the 384-well compound-containing plates for a final volume of 50 μL. After a 10 min shake on a plate shaker, the plates were then incubated for 1 h at 37 °C. After incubation, the plates were centrifuged at 1000× g for 10 min to pellet cells and debris; 25 μL of the supernatant was then transferred to a polystyrene 384-well assay plate. Hemolysis was determined by measuring the supernatant absorbance at […] (OD405). The absorbance was measured using a Tecan M1000 Pro monochromator plate reader. HC10 and HC50 (concentrations at 10% and 50% hemolysis, respectively) were calculated by a curve fitting the inhibition values vs. log (concentration) using a sigmoidal dose–response function with variable fitting values for the top, bottom, and slope.

Data set [7] concerns P. aeruginosa ATCC 27853. The experiment in a line: Doxycycline potentiation against P. aeruginosa. Type of data set: cell-based, Pseudomonas aeruginosa. The note with it: doxycycline at 2 µg/mL (4.5 µM); for Dox/Pa fold-change (intrinsic MIC / combination MIC): P. aeruginosa ATCC 27853; for Dox/Pa: concentration required to restore doxycycline activity (combination MIC): P. aeruginosa ATCC 27853, mean n = 3.
Description: as §2

A word on the MIC: it is the least concentration at which growth counts as inhibited. A word on the IC50: it is the point on the concentration scale where inhibition reaches its midpoint. `O=C(NCCCNCCCCCCCNCCCNC(=O)c1c[nH]c2ccc(Br)cc12)c1c[nH]c2ccc(Br)cc12` [Compound 13c]: the MIC against A. baumannii ATCC 19606 was above 35 µM; in the data set on P. aeruginosa ATCC 27853 [1], 220 µM (≈ 151 µg/mL); in the data set with MRSA ATCC 43300 it was at most 0.27 µM; in the data set with E. coli ATCC 25922 [2], 110 µM (≈ 75.7 µg/mL); against C. albicans ATCC 90028, 35 µM (≈ 24.1 µg/mL); with S. aureus ATCC 25923, 13.6 µM (≈ 9.36 µg/mL). Besides, in data set [6], the MIC is at most 0.27 µM. The IC50 at 20 h in data set [3] is above 35 µM. In addition, the “MIC Kp” value in data set [4] was above 35 µM. The “Erythro/Ec fold-change (intrinsic MIC / combination MIC)” value in the data set on E. coli ATCC 25922 [5] is recorded as 16 fold. Besides, the “Erythro/Ec: concentration required to restore erythromycin activity (combination MIC)” value (shortened to “Erythro/Ec: concentration required”) with E. coli ATCC 25922 [5] stood at 6.82 µM. Besides, the “Hemolysis HC10” value in the data set on human red blood cells is recorded as above 35 µM. Moreover, the “Dox/Pa fold-change (intrinsic MIC / combination MIC)” value with P. aeruginosa ATCC 27853 [7] was 16 fold. Moreover, in the data set with P. aeruginosa ATCC 27853 [7], the “Dox/Pa: concentration required to restore doxycycline activity (combination MIC)” value (from here on “Dox/Pa: concentration required”) stood at 13.6 µM.
`O=C(NCCCNCCCCCCCCNCCCNC(=O)c1c[nH]c2ccc(Br)cc12)c1c[nH]c2ccc(Br)cc12` [Compound 13d]: the MIC with A. baumannii ATCC 19606 was at most 0.27 µM; with P. aeruginosa ATCC 27853 [1] it was 107 µM (≈ 75.2 µg/mL); in the data set on MRSA ATCC 43300, at most 0.27 µM; with E. coli ATCC 25922 [2], 53.7 µM (≈ 37.7 µg/mL); against C. albicans ATCC 90028 it was at most 0.27 µM; in the data set with S. aureus ATCC 25923, 3.36 µM (≈ 2.36 µg/mL). In data set [6], the MIC is at most 0.27 µM. The IC50 at 20 h in data set [3] is above 34 µM. Further, the “MIC Kp” value in data set [4] is on record as above 34 µM. Also, the “Erythro/Ec fold-change (intrinsic MIC / combination MIC)” value with E. coli ATCC 25922 [5] turned out to be 8 fold. Further, the “Erythro/Ec: concentration required” value in the data set with E. coli ATCC 25922 [5] was determined as 6.72 µM. In addition, the “Hemolysis HC10” value in the data set with human red blood cells is given as above 34 µM. Further, in the data set on P. aeruginosa ATCC 27853 [7], the “Dox/Pa fold-change (intrinsic MIC / combination MIC)” value is 8 fold. In addition, the “Dox/Pa: concentration required” value in the data set with P. aeruginosa ATCC 27853 [7] is reported as 13.4 µM.
`O=C(NCCCNCCCCCCCCCCNCCCNC(=O)c1c[nH]c2ccc(Br)cc12)c1c[nH]c2ccc(Br)cc12` [Compound 13e]: the MIC in the data set with A. baumannii ATCC 19606 is 16.7 µM (≈ 12.2 µg/mL); in the data set with P. aeruginosa ATCC 27853 [1] it was 104 µM (≈ 76 µg/mL); in the data set with MRSA ATCC 43300, at most 0.26 µM; with E. coli ATCC 25922 [2], 52.2 µM (≈ 38.1 µg/mL); with C. albicans ATCC 90028 it was 4.17 µM (≈ 3.05 µg/mL); in the data set with S. aureus ATCC 25923 it was 3.26 µM (≈ 2.38 µg/mL). In data set [6], this compound had an MIC of at most 0.26 µM. In [3], the IC50 at 20 h is above 33 µM. Further, in [4], the “MIC Kp” value was above 34 µM. In the data set with E. coli ATCC 25922 [5], the “Erythro/Ec fold-change (intrinsic MIC / combination MIC)” value stood at 8 fold. Further, in the data set with E. coli ATCC 25922 [5], the “Erythro/Ec: concentration required” value was found to be 6.52 µM. Besides, the “Hemolysis HC10” value with human red blood cells is reported as above 33 µM. The “Dox/Pa fold-change (intrinsic MIC / combination MIC)” value in the data set on P. aeruginosa ATCC 27853 [7] turned out to be 4 fold. Besides, the “Dox/Pa: concentration required” value in the data set on P. aeruginosa ATCC 27853 [7] came to 26.1 µM.
On to `Cc1cccc2c(C(=O)NCCCNCCCCNCCCNC(=O)c3c[nH]c4c(C)cccc34)c[nH]c12` [Compound 18a], for which the MIC is above 43 µM in the data set with A. baumannii ATCC 19606; 269 µM (≈ 139 µg/mL) in the data set with P. aeruginosa ATCC 27853 [1]; 21.5 µM (≈ 11.1 µg/mL) in the data set with MRSA ATCC 43300; above 269 µM in the data set with E. coli ATCC 25922 [2]; above 43 µM against C. albicans ATCC 90028; above 269 µM with S. aureus ATCC 25923. In addition, in data set [3], the IC50 at 20 h was above 43 µM. Moreover, in data set [4], the “MIC Kp” value is on record as above 43 µM. Moreover, the “Erythro/Ec fold-change (intrinsic MIC / combination MIC)” value in the data set with E. coli ATCC 25922 [5] is 1 fold. Moreover, the “Erythro/Ec: concentration required” value in the data set on E. coli ATCC 25922 [5] was above 269 µM. Further, the “Hemolysis HC10” value in the data set on human red blood cells was above 43 µM. The “Dox/Pa fold-change (intrinsic MIC / combination MIC)” value in the data set with P. aeruginosa ATCC 27853 [7] is reported as 1 fold. For the same compound, the “Dox/Pa: concentration required” value in the data set on P. aeruginosa ATCC 27853 [7] was determined as 269 µM.
In the case of `OC(Cn1cncn1)(Cn1cncn1)c1ccc(F)cc1F` [Fluconazole, reference compound], the MIC in the data set with C. albicans ATCC 90028 came to 0.4 µM (≈ 0.123 µg/mL); in data set [6] it was 26 µM (≈ 7.96 µg/mL).
